According to patent publication US20090177450A1, “SYSTEMS AND METHODS FOR PREDICTING RESPONSE OF BIOLOGICAL SAMPLES” (Lawrence Berkeley National Laboratory, priority 2007, published 2009):
Where two headings read alike, the source gives them in different places.

Tests used:
[1] = test system: ERBB2-positive tumors from human cancer patients; experiment: Progression free survival in a tumor panel stratified by the 6-gene computational model (Example 7); assay type: in vivo; details: sensitive if predicted log(GI50)≦0.4
From the text: The computational model described in Example 6 was applied to the mRNA expression levels obtained to predict the Lapatinib sensitivity status of the tumors. […] The progression free survival of those predicted responders (sensitive) were compared to the non-responders (resistant).

[2] = test system: ERBB2-positive patients with advanced or metastatic breast cancer
Procedure: Quantitative mRNA levels of the transcripts were measured relative to GAPDH using the branch capture (BC) assay from Panomics using RNA extracted from single 10 micrometer FFPE sections from each tumor. Adjacent H&E stained sections were analyzed for tumor content and samples with <50% tumor were excluded. Transcript levels measured using the Panomics BC assay were normalized to Affymetrix microarray equivalent levels using a mapping function developed using measurements of the transcript levels measured in 22 breast cancer cell lines using both platforms. These functions were then applied to Panomics BC transcript levels for tumor samples to obtain Affymetrix-equivalent transcript levels for each of the EERBB2, GRB7, CRK, ACOT9, CBX5, and DDX5 genes. The weights in the 6-gene predictive model for the tumors were the same as determined from cell lines.
EGF20009 was a randomized, first line phase II trial in ERBB2-positive patients with advanced or metastatic breast cancer in which patients received Lapatinib as monotherapy. 138 patients with ERBB2-amplified tumors were randomly assigned to one of two Lapatinib dose cohorts: 69 patients received Lapatinib 1,500 mg once daily, and the remaining 69 patients received Lapatinib 500 mg twice daily. Samples from patients treated at both levels of Lapatinib were included in the study and patients were stratified into three groups based on tumor ERBB2 mRNA expression levels measured using the Panomics BC assay. Patients with the highest ERBB2 expression levels were assigned to a group designated as sensitive, patients with the lowest ERBB2 expression levels were assigned to a group designated as resistant and the remaining patients were assigned to an intermediate group (n=53). Patients whose tumors assigned to the intermediate group were further stratified into resistant and sensitive classes by using the 6-gene predictor set and a single response predictor CBX5, respectively.

[3] = test system: breast cancer cell lines; experiment: cells; details: Homo sapiens
[4] = test system: breast cancer cell lines

CS(=O)(=O)CCNCc1ccc(-c2ccc3ncnc(Nc4ccc(OCc5cccc(F)c5)c(Cl)c4)c3c2)o1 [Lapatinib]
median survival of predicted responders compared to non-responders [1]: longer
hazards ratio (HR), predicted sensitive vs predicted resistant patients ([2]; intermediate ERBB2 expression group (n=53), 6-gene predictor set): 0.383
hazards ratio (HR), predicted sensitive vs predicted resistant patients ([2]; intermediate group, CBX5 single predictor): 0.25
median survival ([2]; intermediate group, patients predicted to be resistant, CBX5 single predictor): 61 days
median survival ([2]; intermediate group, patients predicted to be sensitive, CBX5 single predictor): 176 days
response rate ([2]; patients predicted to be resistant, CBX5 single predictor): 17%
response rate ([2]; patients predicted to be sensitive, CBX5 single predictor): 56%
GI50 ([3]; AU565, read-out: log10(GI50), cell line AU565 (converted), Training sample): 0.0234 µM
GI50 ([3]; BT-474, read-out: log10(GI50), cell line BT474 (converted), Training sample): 0.03 µM
GI50 ([3]; BT-483, read-out: log10(GI50), cell line BT483 (converted), Training sample): 1.89 µM
GI50 ([3]; BT-549, read-out: log10(GI50), cell line BT549 (converted), Training sample): 25.1 µM
GI50 ([3]; CAMA-1, read-out: log10(GI50), cell line CAMA1 (converted), Test sample): 32.1 µM
GI50 ([3]; HBL-100, read-out: log10(GI50), cell line HBL100 (converted), Training sample): 6.33 µM
GI50 ([3]; HCC38, read-out: log10(GI50), cell line HCC38 (converted), Training sample): 5 µM
GI50 ([3]; HCC70, read-out: log10(GI50), cell line HCC70 (converted), Test sample): 0.5 µM
GI50 ([3]; HCC202, read-out: log10(GI50), cell line HCC202 (converted), Test sample): 0.015 µM
GI50 ([3]; HCC1143, read-out: log10(GI50), cell line HCC1143 (converted), Training sample): 3.04 µM
GI50 ([3]; HCC1187, read-out: log10(GI50), cell line HCC1187 (converted), Test sample): 7.35 µM
GI50 ([3]; HCC1428, read-out: log10(GI50), cell line HCC1428 (converted), Test sample): 10 µM
GI50 ([3]; HCC1500, read-out: log10(GI50), cell line HCC1500 (converted), Training sample): 1.6 µM
GI50 ([3]; HCC1569, read-out: log10(GI50), cell line HCC1569 (converted), Training sample): 0.1 µM
GI50 ([3]; HCC1937, read-out: log10(GI50), cell line HCC1937 (converted), Training sample): 3 µM
GI50 ([3]; HCC1954, read-out: log10(GI50), cell line HCC1954 (converted), Training sample): 0.3 µM
GI50 ([3]; Hs-578T, read-out: log10(GI50), cell line HS578T (converted), Training sample): 10 µM
GI50 ([3]; MCF7, read-out: log10(GI50), cell line MCF7 (converted), Training sample): 6 µM
GI50 ([3]; MCF-10A, read-out: log10(GI50), cell line MCF10A (converted), Training sample): 3 µM
GI50 ([3]; MCF-12A, read-out: log10(GI50), cell line MCF12A (converted), Test sample): 4 µM
GI50 ([3]; MDA-MB-157, read-out: log10(GI50), cell line MDAMB157 (converted), Training sample): 10 µM
GI50 ([3]; MDA-MB-231, read-out: log10(GI50), cell line MDAMB231 (converted), Training sample): 10 µM
GI50 ([3]; MDA-MB-361, read-out: log10(GI50), cell line MDAMB361 (converted), Training sample): 1.2 µM
GI50 ([3]; MDA-MB-435, read-out: log10(GI50), cell line MDAMB435 (converted), Training sample): 10 µM
GI50 ([3]; MDA-MB-436, read-out: log10(GI50), cell line MDAMB436 (converted), Training sample): 30 µM
GI50 ([3]; MDA-MB-453, read-out: log10(GI50), cell line MDAMB453 (converted), Training sample): 3 µM
GI50 ([3]; MDA-MB-468, read-out: log10(GI50), cell line MDAMB468 (converted), Training sample): 10 µM
GI50 ([3]; SK-BR-3, read-out: log10(GI50), cell line SKBR3 (converted), Test sample): 0.03 µM
GI50 ([3]; SUM52PE, read-out: log10(GI50), cell line SUM52PE (converted), Training sample): 15 µM
GI50 ([3]; SUM149PT, read-out: log10(GI50), cell line SUM149PT (converted), Training sample): 0.3 µM
GI50 ([3]; SUM185PE, read-out: log10(GI50), cell line SUM185PE (converted), Training sample): 12 µM
GI50 ([3]; SUM-159-PT, read-out: log10(GI50), cell line SUM159PT (converted), Training sample): 3 µM
GI50 ([3]; T47D, read-out: log10(GI50), cell line T47D (converted), Test sample): 25 µM
GI50 ([3]; UACC-812, read-out: log10(GI50), cell line UACC812 (converted), Training sample): 0.015 µM
GI50 ([3]; ZR-75-1, read-out: log10(GI50), cell line ZR75.1 (converted), Test sample): 20 µM
GI50 ([3]; ZR-75B, read-out: log10(GI50), cell line ZR75B (converted), Test sample): 8 µM
GI50 ([3]; read-out: average log(GI50), training set of 30 breast cancer cell-lines (converted)): 2.51 µM
GI50 ([3]; read-out: log10(GI50), cell line 600MPE (converted), Training sample): 8 µM
GI50 ([3]; read-out: log10(GI50), cell line HCC2185 (converted), Training sample): 8 µM
GI50 ([3]; read-out: log10(GI50), cell line HCC3153 (converted), Training sample): 10 µM
GI50 ([3]; read-out: log10(GI50), cell line LY2 (converted), Training sample): 8 µM
dynamic range of the GI50 response data ([4]; across 40 breast cancer cell lines): > 3 logs
Sensitivity ([4]; cell line AU565 found sensitive to Lapatinib): Yes
Sensitivity ([4]; cell line BT474 found sensitive to Lapatinib): Yes
Sensitivity ([4]; cell line HCC202 found sensitive to Lapatinib): Yes
Sensitivity ([4]; cell line HCC1569 found sensitive to Lapatinib): Yes
Sensitivity ([4]; cell line HCC1954 found sensitive to Lapatinib): Yes
Sensitivity ([4]; cell line SKBR3 found sensitive to Lapatinib): Yes
Sensitivity ([4]; cell line SUM149PT found sensitive to Lapatinib): Yes
Sensitivity ([4]; cell line UACC812 found sensitive to Lapatinib): Yes
